Design in all cases: scale not given: the % may be the effect or the level left
Assay [1] concerns the target T1, Homeodomain-interacting protein kinase 4 (Homo sapiens) (UniProt Q8NE63).
T1 sequence (whole entry): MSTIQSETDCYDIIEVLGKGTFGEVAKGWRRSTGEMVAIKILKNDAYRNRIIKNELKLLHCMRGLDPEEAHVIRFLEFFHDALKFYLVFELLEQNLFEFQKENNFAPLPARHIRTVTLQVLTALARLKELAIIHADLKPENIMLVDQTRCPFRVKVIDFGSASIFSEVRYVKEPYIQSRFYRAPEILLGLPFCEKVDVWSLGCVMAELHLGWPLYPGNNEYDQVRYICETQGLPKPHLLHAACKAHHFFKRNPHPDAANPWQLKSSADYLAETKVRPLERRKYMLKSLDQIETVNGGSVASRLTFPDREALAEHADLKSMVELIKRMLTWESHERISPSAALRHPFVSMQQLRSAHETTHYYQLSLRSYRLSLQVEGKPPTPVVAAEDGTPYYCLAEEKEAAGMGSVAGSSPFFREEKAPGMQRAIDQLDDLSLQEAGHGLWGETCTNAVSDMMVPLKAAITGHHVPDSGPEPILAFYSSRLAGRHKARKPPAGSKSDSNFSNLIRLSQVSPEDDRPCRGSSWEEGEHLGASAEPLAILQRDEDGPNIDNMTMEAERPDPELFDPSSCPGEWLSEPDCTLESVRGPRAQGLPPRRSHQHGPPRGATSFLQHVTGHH
Briefly: Inhibition of human HIPK4 assessed as enzyme activity at 1 uM using myelin basic protein as substrate preincubated for 20 mins followed by [gamma-33P]-ATP addition and measured after 120 mins by radiometric Hot-SpotSM Kinase assay relative to control.

For assay [2], the target named is Ribosomal protein S6 kinase alpha-2 (Homo sapiens) (UniProt Q15349). Briefly: Inhibition of human RSK3 assessed as enzyme activity at 1 uM using KKLNRTLSVA as substrate preincubated for 20 mins followed by [gamma-33P]-ATP addition and measured after 120 mins by radiometric Hot-SpotSM Kinase assay relative to control.
Assay [3] concerns the target Ribosomal protein S6 kinase alpha-3 (Homo sapiens) (UniProt P51812). Briefly: Inhibition of human RSK2 assessed as enzyme activity at 1 uM using KKLNRTLSVA as substrate preincubated for 20 mins followed by [gamma-33P]-ATP addition and measured after 120 mins by radiometric Hot-SpotSM Kinase assay relative to control.
The target in assay [4] is Serine/threonine-protein kinase WNK2 (Homo sapiens) (UniProt Q9Y3S1). Kind of assay: Inhibition of human WNK2 assessed as enzyme activity at 1 uM using myelin basic protein as substrate preincubated for 20 mins followed by [gamma-33P]-ATP addition and measured after 120 mins by radiometric Hot-SpotSM Kinase assay relative to control.
The target in assay [5] is Protein kinase C eta type (Homo sapiens) (UniProt P24723). Briefly: Inhibition of human PKCeta assessed as enzyme activity at 1 uM using ERMRPRKRQGSVRRRV as substrate preincubated for 20 mins followed by [gamma-33P]-ATP addition and measured after 120 mins by radiometric Hot-SpotSM Kinase assay relative to control.
For assay [6], the target named is T2, Serine/threonine-protein kinase D3 (Homo sapiens) (UniProt O94806).
T2 sequence (whole entry): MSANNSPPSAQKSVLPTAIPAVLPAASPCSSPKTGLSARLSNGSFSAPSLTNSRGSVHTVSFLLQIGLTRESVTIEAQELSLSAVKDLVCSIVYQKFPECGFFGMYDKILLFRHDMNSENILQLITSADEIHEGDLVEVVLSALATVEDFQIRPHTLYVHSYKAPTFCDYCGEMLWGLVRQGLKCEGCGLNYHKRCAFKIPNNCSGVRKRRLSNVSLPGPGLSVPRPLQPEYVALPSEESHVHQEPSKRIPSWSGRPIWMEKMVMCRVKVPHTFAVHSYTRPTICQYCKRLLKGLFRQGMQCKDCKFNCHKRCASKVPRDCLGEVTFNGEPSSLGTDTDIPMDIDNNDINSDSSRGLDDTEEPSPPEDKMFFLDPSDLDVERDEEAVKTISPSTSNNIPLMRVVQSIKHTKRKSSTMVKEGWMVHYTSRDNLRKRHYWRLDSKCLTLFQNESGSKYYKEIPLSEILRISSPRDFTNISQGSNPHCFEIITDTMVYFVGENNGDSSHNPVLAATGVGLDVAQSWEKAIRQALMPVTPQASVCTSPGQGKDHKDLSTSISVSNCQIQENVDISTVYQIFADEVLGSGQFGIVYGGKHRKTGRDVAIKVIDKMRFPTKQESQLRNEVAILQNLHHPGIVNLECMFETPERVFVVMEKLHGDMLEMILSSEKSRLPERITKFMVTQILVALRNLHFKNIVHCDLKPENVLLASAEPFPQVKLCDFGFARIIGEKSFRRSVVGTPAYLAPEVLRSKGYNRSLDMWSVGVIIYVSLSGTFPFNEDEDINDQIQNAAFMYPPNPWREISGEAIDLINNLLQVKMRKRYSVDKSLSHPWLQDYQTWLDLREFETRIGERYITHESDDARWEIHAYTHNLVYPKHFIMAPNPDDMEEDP
Briefly: Inhibition of human PKCnu assessed as enzyme activity at 1 uM using KKLNRTLSVA as substrate preincubated for 20 mins followed by [gamma-33P]-ATP addition and measured after 120 mins by radiometric Hot-SpotSM Kinase assay relative to control.

Assay [7] has as its target Serine/threonine-protein kinase OSR1 (Homo sapiens) (UniProt O95747). Kind of assay: Inhibition of human OSR1 assessed as enzyme activity at 1 uM using RRHYYYDTHTNTYYLRTFGHNTRR as substrate preincubated for 20 mins followed by [gamma-33P]-ATP addition and measured after 120 mins by radiometric Hot-SpotSM Kinase assay relative to control.
The target of assay [8] is Serine/threonine-protein kinase/endoribonuclease IRE1 (Homo sapiens) (UniProt O75460). Kind of assay: Inhibition of human ERN1 assessed as enzyme activity at 1 uM using myelin basic protein as substrate preincubated for 20 mins followed by [gamma-33P]-ATP addition and measured after 120 mins by radiometric Hot-SpotSM Kinase assay relative to control.

Molecules are shown by their SMILES.

Sequence of Serine/threonine-protein kinase/endoribonuclease IRE1 (Homo sapiens) (O75460 19-977 limits assumed): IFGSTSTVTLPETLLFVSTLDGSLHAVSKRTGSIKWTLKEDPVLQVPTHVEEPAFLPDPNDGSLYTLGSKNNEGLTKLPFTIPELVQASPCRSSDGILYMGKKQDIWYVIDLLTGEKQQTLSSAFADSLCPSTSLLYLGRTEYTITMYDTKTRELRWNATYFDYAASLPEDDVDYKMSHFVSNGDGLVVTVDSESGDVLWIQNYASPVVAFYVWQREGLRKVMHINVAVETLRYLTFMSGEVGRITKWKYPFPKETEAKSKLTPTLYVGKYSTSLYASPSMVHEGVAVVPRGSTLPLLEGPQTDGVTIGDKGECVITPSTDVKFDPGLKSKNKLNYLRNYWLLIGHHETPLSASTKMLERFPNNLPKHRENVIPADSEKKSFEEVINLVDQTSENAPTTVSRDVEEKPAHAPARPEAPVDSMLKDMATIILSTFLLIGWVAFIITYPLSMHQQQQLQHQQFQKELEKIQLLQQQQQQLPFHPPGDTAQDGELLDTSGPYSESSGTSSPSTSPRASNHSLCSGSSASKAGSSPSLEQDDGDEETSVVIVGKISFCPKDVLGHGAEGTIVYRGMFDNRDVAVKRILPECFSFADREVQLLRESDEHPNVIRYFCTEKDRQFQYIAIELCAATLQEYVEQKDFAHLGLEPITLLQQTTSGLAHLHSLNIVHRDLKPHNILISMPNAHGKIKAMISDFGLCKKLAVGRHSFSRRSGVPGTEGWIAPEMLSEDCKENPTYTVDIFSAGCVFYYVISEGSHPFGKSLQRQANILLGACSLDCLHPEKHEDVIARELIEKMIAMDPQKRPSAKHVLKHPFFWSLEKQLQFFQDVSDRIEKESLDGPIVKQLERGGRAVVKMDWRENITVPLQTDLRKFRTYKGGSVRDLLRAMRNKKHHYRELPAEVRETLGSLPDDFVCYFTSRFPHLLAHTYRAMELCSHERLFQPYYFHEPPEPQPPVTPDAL
Sequence of Protein kinase C eta type (Homo sapiens) (P24723 whole entry): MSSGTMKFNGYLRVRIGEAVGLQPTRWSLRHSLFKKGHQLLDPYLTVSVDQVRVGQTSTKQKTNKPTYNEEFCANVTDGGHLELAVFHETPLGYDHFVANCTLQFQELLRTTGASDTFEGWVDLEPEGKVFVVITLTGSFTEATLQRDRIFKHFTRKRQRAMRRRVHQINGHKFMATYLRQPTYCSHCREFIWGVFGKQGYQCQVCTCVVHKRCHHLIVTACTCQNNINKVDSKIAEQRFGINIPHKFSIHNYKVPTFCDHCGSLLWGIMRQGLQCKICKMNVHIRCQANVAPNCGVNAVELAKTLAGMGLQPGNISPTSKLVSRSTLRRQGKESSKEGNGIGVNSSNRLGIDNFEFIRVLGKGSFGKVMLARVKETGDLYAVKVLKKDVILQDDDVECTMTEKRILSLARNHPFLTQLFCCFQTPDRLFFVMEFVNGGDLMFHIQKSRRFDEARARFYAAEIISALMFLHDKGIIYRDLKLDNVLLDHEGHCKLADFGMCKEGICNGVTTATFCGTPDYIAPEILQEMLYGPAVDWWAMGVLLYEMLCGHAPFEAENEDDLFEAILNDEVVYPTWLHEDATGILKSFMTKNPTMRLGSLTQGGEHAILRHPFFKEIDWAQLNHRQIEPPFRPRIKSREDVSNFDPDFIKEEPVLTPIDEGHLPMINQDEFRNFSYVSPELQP
Sequence of Ribosomal protein S6 kinase alpha-2 (Homo sapiens) (Q15349 whole entry): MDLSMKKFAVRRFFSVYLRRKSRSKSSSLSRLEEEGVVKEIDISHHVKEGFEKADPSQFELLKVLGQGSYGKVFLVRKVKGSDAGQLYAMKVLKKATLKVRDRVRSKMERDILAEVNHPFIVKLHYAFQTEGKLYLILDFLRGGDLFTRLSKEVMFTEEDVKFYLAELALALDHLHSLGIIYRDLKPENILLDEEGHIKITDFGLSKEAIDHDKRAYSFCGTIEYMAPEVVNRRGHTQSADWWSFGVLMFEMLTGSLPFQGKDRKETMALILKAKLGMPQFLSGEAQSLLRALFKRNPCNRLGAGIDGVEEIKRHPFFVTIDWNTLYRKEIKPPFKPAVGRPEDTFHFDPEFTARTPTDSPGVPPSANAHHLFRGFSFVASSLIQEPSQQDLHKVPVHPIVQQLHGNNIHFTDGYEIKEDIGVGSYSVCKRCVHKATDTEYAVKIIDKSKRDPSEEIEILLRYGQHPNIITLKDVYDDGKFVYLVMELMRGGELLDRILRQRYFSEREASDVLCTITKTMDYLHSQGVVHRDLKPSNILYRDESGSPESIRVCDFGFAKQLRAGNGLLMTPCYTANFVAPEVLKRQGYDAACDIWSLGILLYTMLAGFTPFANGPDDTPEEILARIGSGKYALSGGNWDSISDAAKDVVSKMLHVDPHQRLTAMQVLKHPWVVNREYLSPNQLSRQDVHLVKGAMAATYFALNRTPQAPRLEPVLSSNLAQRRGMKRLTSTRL
Sequence of Ribosomal protein S6 kinase alpha-3 (Homo sapiens) (P51812 whole entry): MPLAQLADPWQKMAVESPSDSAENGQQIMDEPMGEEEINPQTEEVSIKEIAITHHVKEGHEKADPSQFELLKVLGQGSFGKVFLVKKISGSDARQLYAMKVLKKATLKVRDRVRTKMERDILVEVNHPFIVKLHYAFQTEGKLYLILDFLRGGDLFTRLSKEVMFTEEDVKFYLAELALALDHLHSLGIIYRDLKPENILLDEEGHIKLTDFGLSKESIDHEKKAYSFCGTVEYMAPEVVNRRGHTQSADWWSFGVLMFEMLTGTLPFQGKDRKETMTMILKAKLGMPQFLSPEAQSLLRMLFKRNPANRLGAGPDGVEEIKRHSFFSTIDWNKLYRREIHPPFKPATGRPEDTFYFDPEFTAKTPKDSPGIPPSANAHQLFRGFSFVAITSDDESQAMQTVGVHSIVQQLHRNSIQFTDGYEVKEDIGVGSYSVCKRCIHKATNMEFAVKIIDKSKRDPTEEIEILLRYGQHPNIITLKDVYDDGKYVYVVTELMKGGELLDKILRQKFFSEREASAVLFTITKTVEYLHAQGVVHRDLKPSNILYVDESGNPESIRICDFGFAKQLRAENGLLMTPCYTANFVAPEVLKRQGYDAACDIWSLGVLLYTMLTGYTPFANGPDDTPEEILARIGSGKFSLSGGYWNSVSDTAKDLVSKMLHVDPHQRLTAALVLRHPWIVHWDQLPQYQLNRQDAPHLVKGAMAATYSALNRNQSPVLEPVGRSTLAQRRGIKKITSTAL
Sequence of Serine/threonine-protein kinase OSR1 (Homo sapiens) (O95747 2-527 limits assumed): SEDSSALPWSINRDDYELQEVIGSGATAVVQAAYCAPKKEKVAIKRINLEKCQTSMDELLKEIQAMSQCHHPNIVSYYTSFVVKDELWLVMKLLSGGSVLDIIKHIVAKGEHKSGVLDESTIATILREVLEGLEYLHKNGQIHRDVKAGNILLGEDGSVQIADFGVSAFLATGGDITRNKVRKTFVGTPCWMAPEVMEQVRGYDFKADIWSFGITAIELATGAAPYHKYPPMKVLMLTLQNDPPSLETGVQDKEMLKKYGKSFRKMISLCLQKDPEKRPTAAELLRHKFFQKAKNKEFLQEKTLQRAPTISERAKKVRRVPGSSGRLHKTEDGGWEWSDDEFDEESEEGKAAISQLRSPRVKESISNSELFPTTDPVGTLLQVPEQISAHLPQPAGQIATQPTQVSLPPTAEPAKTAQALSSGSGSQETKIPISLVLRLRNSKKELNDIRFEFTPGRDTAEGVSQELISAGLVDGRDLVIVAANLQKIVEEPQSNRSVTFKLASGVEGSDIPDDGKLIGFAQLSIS

For the compound `C[C@H](Nc1ncnc2nc[nH]c12)c1cc2cccc(Cl)c2c(=O)n1-c1ccccc1`, the Activity in assay [1] came out at 98.9%; in assay [2], 94.1%; in assay [3], 97.7%; in assay [4], 90.5%; in assay [5], 87.7%; in assay [6] it was 94.8%. Further, the Activity in assay [7] turned out to be 97.1%; in assay [8], 97.3%.
For the compound `CC[C@H](Nc1ncnc2[nH]cnc12)c1nc2cccc(F)c2c(=O)n1-c1ccccc1`, the Activity was found to be 92.9% in assay [1]; 98.3% in assay [2]; 101% in assay [3]; 92.3% in assay [4]; 88.5% in assay [5]; 85.5% in assay [6]. Also, the Activity in assay [7] amounted to 93.2%; in assay [8] it was 96.4%.
As to `CC(C)Oc1ccc(-c2nn([C@@H](C)c3oc4ccc(F)cc4c(=O)c3-c3cccc(F)c3)c3ncnc(N)c23)cc1F` [UMBRALISIB], the Activity in assay [1] was found to be 113%; in assay [2], 101%; in assay [3] it was 106%; in assay [4], 82.2%; in assay [5], 88.4%; in assay [6], 98.4%. The Activity in assay [7] is 95.5%; in assay [8], 91.6%.

(Values after ChEMBL document CHEMBL5715954, “Silencing c-Myc translation as a therapeutic strategy through targeting PI3Kδ and CK1ε in hematological malignancies” (Blood, 2017).)
